Test results taken from ChEMBL document CHEMBL1133799, “A disubstituted NAD+ analogue is a nanomolar inhibitor of trypanosomal glyceraldehyde-3-phosphate dehydrogenase” (Bioorg Med Chem Lett, 2001).
pEC50, pIC50: −log10 of the molar value.

Tests used:
NIH3T3 = assay: Effective dose required against Trypanosoma cruzi amastigotes in 3T3 Fibroblasts; type: functional; conditions: Mus musculus, read-out: ED50 (the source's name)
Trypanosoma cruzi [1] = assay: Effective dose required against Trypanosoma cruzi amastigotes; conditions: read-out: ED50 (the source's name)
[2] = target: glyceraldehyde-3-phosphate dehydrogenase (Leishmania mexicana); assay: Inhibitory concentration against Leishmania mexicana glyceraldehyde-3-phosphate dehydrogenase (GAPDH)
[3] = Inhibitory concentration against Trypanosoma cruzi glyceraldehyde-3-phosphate dehydrogenase (GAPDH)
Trypanosoma brucei = assay: Effective dose required against Trypanosoma brucei in bloodstream; type: functional; conditions: read-out: ED50 (the source's name)
[4] = Inhibitory concentration against rabbit muscle glyceraldehyde-3-phosphate dehydrogenase (GAPDH); parameters: species or system Oryctolagus cuniculus
[5] = Inhibitory concentration against Trypanosoma brucei glyceraldehyde-3-phosphate dehydrogenase (GAPDH)
Trypanosoma cruzi [6] = assay: Effective dose required against Trypanosoma cruzi amastigotes; conditions: read-out: ED50 (the source's name); remark: listed apart in the source
[7] = target: glyceraldehyde-3-phosphate dehydrogenase (Leishmania mexicana); assay: Inhibitory concentration against Leishmania mexicana glyceraldehyde-3-phosphate dehydrogenase (GAPDH); remark: listed apart in the source

Compound | pEC50 (NIH3T3) | pEC50 (Trypanosoma cruzi [1]) | pIC50 [2] | pIC50 [3] | pEC50 (Trypanosoma brucei) | pIC50 [4] | pIC50 [5] | pEC50 (Trypanosoma cruzi [6]) | pIC50 [7]
COc1cccc(C(=O)N[C@@H]2[C@H](O)[C@@H](CO)O[C@H]2n2cnc3c(NCc4cccc5ccccc45)ncnc32)c1 | < 4.30 | 4.70 | 5.22 | 4.92 | 4.52 | < 4.30 | 4.60 |  | 
N=C(N)c1ccc(OCCCCCOc2ccc(C(=N)N)cc2)cc1 [PENTAMIDINE] |  |  |  |  | 8.10 |  |  |  | 
O=C(Cn1ccnc1[N+](=O)[O-])NCc1ccccc1 [BENZNIDAZOLE] | < 4.30 |  |  |  |  |  |  |  | 
COc1cccc(C(=O)N[C@@H]2[C@H](O)[C@@H](COP(=O)(O)O)O[C@H]2n2cnc3c(NCc4cccc5ccccc45)ncnc32)c1 | 4.05 |  |  | 5.30 | 4.49 | < 4.00 | 5.15 | 5.22 | 5.70
NC(=O)c1ccc[n+]([C@@H]2O[C@H](COP(=O)([O-])O)[C@@H](O)[C@H]2O)c1 [BETANMN] |  |  |  |  |  | < 3.30 |  |  | < 3.30
